In publication PMC5660082, “Bioluminescence imaging of G protein-coupled receptor activation in living mice” (Nature Communications, 2017) one finds EC50 data, which are given here for two compounds.

The experiment deals with T1, Sphingosine-1-phosphate receptor 1 (S1P1) (Mus musculus, UniProt O08530).
T1 construct: gene S1pr1; mouse S1pr1 coding region with C terminus linked to C-terminal firefly luciferase fragment (amino acids #394–550), S1P1–CLuc; with NLuc–β-arrestin2
Nature of the experiment: split luciferase β-arrestin2 recruitment (bioluminescence) in knock-in mouse embryonic fibroblasts. The class given is cell-based. A general note: Arrestin recruitment assays detect the binding of arrestin to an activated receptor.

Like-named read-outs stand apart in the source and are kept apart here.

T1 sequence (O08530 2-382): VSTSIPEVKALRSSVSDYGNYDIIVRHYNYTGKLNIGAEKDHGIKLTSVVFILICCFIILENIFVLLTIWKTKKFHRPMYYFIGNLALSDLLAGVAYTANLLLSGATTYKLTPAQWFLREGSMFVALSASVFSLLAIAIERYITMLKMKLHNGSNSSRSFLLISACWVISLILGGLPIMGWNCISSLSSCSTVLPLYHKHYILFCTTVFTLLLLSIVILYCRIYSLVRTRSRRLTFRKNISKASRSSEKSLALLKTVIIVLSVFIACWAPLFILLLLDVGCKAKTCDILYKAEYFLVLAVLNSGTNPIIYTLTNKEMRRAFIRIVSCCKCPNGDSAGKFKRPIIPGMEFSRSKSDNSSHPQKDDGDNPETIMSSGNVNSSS
T1 sequence (Q91YI4 whole entry partner, the tested form may be a part): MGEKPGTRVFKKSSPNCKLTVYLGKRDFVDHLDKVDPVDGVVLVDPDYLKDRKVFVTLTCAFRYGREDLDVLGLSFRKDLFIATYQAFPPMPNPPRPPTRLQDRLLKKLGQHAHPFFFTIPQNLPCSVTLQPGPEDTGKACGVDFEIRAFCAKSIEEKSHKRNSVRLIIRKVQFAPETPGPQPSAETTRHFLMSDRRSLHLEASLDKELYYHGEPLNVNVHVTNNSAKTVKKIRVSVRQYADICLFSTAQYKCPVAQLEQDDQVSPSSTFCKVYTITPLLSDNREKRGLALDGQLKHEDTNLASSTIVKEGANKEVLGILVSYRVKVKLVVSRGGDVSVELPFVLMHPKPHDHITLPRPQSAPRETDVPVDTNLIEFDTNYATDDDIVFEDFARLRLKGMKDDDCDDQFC

Regarding `CCCCCCCCCCCCC/C=C/[C@@H](O)[C@@H](N)COP(=O)(O)O` [S1P], for the setting “read-out: EC50”, the concentration for a half-maximal effect (EC50) came to 19.4 ± 0.8 nM. `CCCCCCCCCCCCCCC[C@@H](O)[C@@H](N)COP(=O)(O)O` [dihydro-S1P] yielded an EC50 of 32.4 ± 0.5 nM.

The term EC50 denotes the concentration needed to bring the measured effect to its halfway point.
